The results in this text go back to publication PMC6222997, “Cloning, purification, and characterization of an organic solvent-tolerant chitinase, MtCh509, from Microbulbifer thermotolerans DAU221” (Biotechnology for Biofuels, 2018).

In the assay the target is T1, MtCh509 (Microbulbifer thermotolerans, UniProt A0A143HNF3).
T1 construct: gene A3224_11035; full-length precursor 509 aa; cloned without signal peptide, N-terminal His6 (pCold I), E. coli BL21(DE3); ~60 kDa; GH18 catalytic domain plus ChtBD3
As to the kind of experiment: TLC of hydrolysis products. The assay is classed as biochemical. The note with it: 50 mM citrate buffer pH 5.0, 55 °C; 0.3 μg enzyme.

T1 sequence (A0A143HNF3 entry or part of it): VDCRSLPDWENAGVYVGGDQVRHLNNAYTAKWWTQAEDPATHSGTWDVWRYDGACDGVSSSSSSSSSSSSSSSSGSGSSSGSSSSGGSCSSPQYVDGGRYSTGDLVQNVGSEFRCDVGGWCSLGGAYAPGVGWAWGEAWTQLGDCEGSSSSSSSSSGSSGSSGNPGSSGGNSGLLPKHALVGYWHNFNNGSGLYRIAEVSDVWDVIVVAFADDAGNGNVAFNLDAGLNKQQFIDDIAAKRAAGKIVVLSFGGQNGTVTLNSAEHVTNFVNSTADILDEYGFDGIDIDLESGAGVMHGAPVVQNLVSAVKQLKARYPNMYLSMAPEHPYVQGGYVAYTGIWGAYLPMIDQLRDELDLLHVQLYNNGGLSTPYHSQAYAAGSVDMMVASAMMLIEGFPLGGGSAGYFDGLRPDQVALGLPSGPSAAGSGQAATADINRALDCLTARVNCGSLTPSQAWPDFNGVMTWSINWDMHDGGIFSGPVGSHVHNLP

Consider `CC(=O)N[C@H]1[C@H](O[C@H]2[C@H](O)[C@@H](NC(C)=O)[C@H](O[C@H]3[C@H](O)[C@@H](NC(C)=O)C(O)O[C@@H]3CO)O[C@@H]2CO)O[C@H](CO)[C@@H](O[C@@H]2O[C@H](CO)[C@@H](O[C@@H]3O[C@H](CO)[C@@H](O[C@@H]4O[C@H](CO)[C@@H](O)[C@H](O)[C@H]4NC(C)=O)[C@H](O)[C@H]3NC(C)=O)[C@H](O)[C@H]2NC(C)=O)[C@@H]1O` (stereo partly shown) [NAG6], for which the “TLC of hydrolysis products” value is “NAG6 (Fig. 5E) was finally degraded to NAG3 and NAG2”.
